Reference: ChEMBL document CHEMBL1201861, “Genomics of Drug Sensitity in Cancer screening data, Wellcome Trust Sanger Institute”

Experiments:
Test in all cases: cells
[1] = system: COR-L23; type: functional, cell-based; conditions: Homo sapiens;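 further: cell viability assay measuring how strongly compounds suppress growth of COR-L23 cells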
Description: SANGER: Inhibition of human COR-L23 cell growth in a cell viability assay.

[2] = system: CP50-MEL-B; type: functional, cell-based; conditions: Homo sapiens;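 further: growth inhibition of the human cell line, measured with a cell viability read-out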
Description: SANGER: Inhibition of human CP50-MEL-B cell growth in a cell viability assay.

[3] = system: Ca-Ski; type: functional, cell-based; conditions: Homo sapiens;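 further: cell viability assay measuring inhibition of Ca-Ski cell growth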
Description: SANGER: Inhibition of human Ca-Ski cell growth in a cell viability assay.

[4] = system: CaR-1; type: functional, cell-based; conditions: Homo sapiens;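 further: growth inhibition of human CaR-1 cancer cells, read out with a cell viability assay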
Description: SANGER: Inhibition of human CaR-1 cell growth in a cell viability assay.

[5] = system: D-247MG; type: functional, cell-based; conditions: Homo sapiens
Description: SANGER: Inhibition of human D-247MG cell growth in a cell viability assay.

[6] = system: DOK; type: functional, cell-based; conditions: Homo sapiens;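 further: cell viability assay read-out, values reflect inhibition of cell growth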
Description: SANGER: Inhibition of human DOK cell growth in a cell viability assay.

[7] = system: FaDu; type: functional, cell-based; conditions: Homo sapiens;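 further: cell viability readout of growth inhibition in FaDu cells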
Description: SANGER: Inhibition of human FADU cell growth in a cell viability assay.

[8] = system: GCT; type: functional, cell-based; conditions: Homo sapiens;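 further: GCT cell line proliferation inhibition, read out with a cell viability assay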
Description: SANGER: Inhibition of human GCT cell growth in a cell viability assay.

[9] = system: KYSE-520 cell line; type: functional, cell-based; conditions: Homo sapiens;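 further: growth inhibition of human KYSE-520 cells, read out with a viability assay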
Description: SANGER: Inhibition of human KYSE-520 cell growth in a cell viability assay.

[10] = system: KYSE-70 cell line; type: functional, cell-based; conditions: Homo sapiens;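 further: cell viability assay read-out, with IC50 expressing suppression of KYSE-70 cell growth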
Description: SANGER: Inhibition of human KYSE-70 cell growth in a cell viability assay.

[11] = system: LK-2; type: functional, cell-based; conditions: Homo sapiens;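 further: growth inhibition of LK-2 cells, read out with a viability assay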
Description: SANGER: Inhibition of human LK-2 cell growth in a cell viability assay.

[12] = system: MCF7; type: functional, cell-based; conditions: Homo sapiens;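 further: growth inhibition of human MCF7 cells, read out with a cell viability assay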
Description: SANGER: Inhibition of human MCF7 cell growth in a cell viability assay.

[13] = system: MDA-MB-157; type: functional, cell-based; conditions: Homo sapiens
Description: SANGER: Inhibition of human MDA-MB-157 cell growth in a cell viability assay.

[14] = system: MDA-MB-175-VII; type: functional, cell-based; conditions: Homo sapiens
[15] = system: MDA-MB-361; type: functional, cell-based; conditions: Homo sapiens
[16] = system: MEL-JUSO; type: functional, cell-based; conditions: Homo sapiens;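 further: growth inhibition of human MEL-JUSO cells, read out with a cell viability assay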
Description: SANGER: Inhibition of human MEL-JUSO cell growth in a cell viability assay.

[17] = system: MIA PaCa-2; type: functional, cell-based; conditions: Homo sapiens;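 further: growth inhibition of MIA PaCa-2 cells, read out with a cell viability assay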
Description: SANGER: Inhibition of human MIA-PaCa-2 cell growth in a cell viability assay.

[18] = system: NCI-H1793; type: functional, cell-based; conditions: Homo sapiens;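 further: cell growth inhibition, read out by a cell viability assay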
Description: SANGER: Inhibition of human NCI-H1793 cell growth in a cell viability assay.

[19] = system: NCI-H2030; type: functional, cell-based; conditions: Homo sapiens;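 further: growth inhibition of human NCI-H2030 cells, read out by a cell viability assay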
Description: SANGER: Inhibition of human NCI-H2030 cell growth in a cell viability assay.

[20] = system: NCI-H2052; type: functional, cell-based; conditions: Homo sapiens;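 further: growth inhibition of NCI-H2052 cells, read out with a cell viability assay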
Description: SANGER: Inhibition of human NCI-H2052 cell growth in a cell viability assay.

[21] = system: NCI-H2122; type: functional, cell-based; conditions: Homo sapiens;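 further: growth inhibition of the cells, read out with a cell viability assay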
Description: SANGER: Inhibition of human NCI-H2122 cell growth in a cell viability assay.

[22] = system: NCI-N87; type: functional, cell-based; conditions: Homo sapiens;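 further: growth inhibition of human NCI-N87 cells, read out with a cell viability assay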
Description: SANGER: Inhibition of human NCI-N87 cell growth in a cell viability assay.

[23] = system: NUGC-3; type: functional, cell-based; conditions: Homo sapiens;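 further: growth inhibition of human NUGC-3 cells, read out with a cell viability assay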
Description: SANGER: Inhibition of human NUGC-3 cell growth in a cell viability assay.

[24] = system: OAW-42; type: functional, cell-based; conditions: Homo sapiens;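 further: growth inhibition of OAW-42 cells, read out with a cell viability assay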
Description: SANGER: Inhibition of human OAW-42 cell growth in a cell viability assay.

[25] = system: OVCAR-5; type: functional, cell-based; conditions: Homo sapiens;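 further: growth inhibition of human OVCAR-5 cells, read out with a cell viability assay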
Description: SANGER: Inhibition of human OVCAR-5 cell growth in a cell viability assay.

[26] = system: PA-1; type: functional, cell-based; conditions: Homo sapiens;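 further: IC50 for suppression of PA-1 cell proliferation, determined with a cell viability read-out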
Description: SANGER: Inhibition of human PA-1 cell growth in a cell viability assay.

[27] = system: PANC-03-27; type: functional, cell-based; conditions: Homo sapiens
Description: SANGER: Inhibition of human PANC-03-27 cell growth in a cell viability assay.

[28] = system: RD; type: functional, cell-based; conditions: Homo sapiens
Description: SANGER: Inhibition of human RD cell growth in a cell viability assay.

[29] = system: SK-MEL-24; type: functional, cell-based; conditions: Homo sapiens;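 further: growth inhibition read out by a cell viability assay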
Description: SANGER: Inhibition of human SK-MEL-24 cell growth in a cell viability assay.

[30] = system: SK-MEL-28; type: functional, cell-based; conditions: Homo sapiens;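 further: growth inhibition of human SK-MEL-28 cells, read out with a cell viability assay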
Description: SANGER: Inhibition of human SK-MEL-28 cell growth in a cell viability assay.

[31] = system: SKG-IIIa; type: functional, cell-based; conditions: Homo sapiens;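 further: cell growth inhibition, read out with a cell viability assay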
Description: SANGER: Inhibition of human SKG-IIIa cell growth in a cell viability assay.

[32] = system: SW1710; type: functional, cell-based; conditions: Homo sapiens;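 further: growth inhibition of SW1710 cells, determined with a cell viability assay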
Description: SANGER: Inhibition of human SW1710 cell growth in a cell viability assay.

[33] = system: SW-620; type: functional, cell-based; conditions: Homo sapiens;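 further: growth inhibition of human SW-620 cells, measured by a cell viability assay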
Description: SANGER: Inhibition of human SW620 cell growth in a cell viability assay.

[34] = system: SW626; type: functional, cell-based; conditions: Homo sapiens;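 further: growth inhibition of SW626 cells, measured with a cell viability assay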
Description: SANGER: Inhibition of human SW626 cell growth in a cell viability assay.

[35] = system: T84; type: functional, cell-based; conditions: Homo sapiens;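 further: growth inhibition measured with a cell viability readout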
Description: SANGER: Inhibition of human T84 cell growth in a cell viability assay.

[36] = system: CWR22R; type: functional, cell-based; conditions: Homo sapiens, 22Rv1;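 further: growth inhibition of 22Rv1 cells, read out with a cell viability assay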
Description: SANGER: Inhibition of human 22RV1 cell growth in a cell viability assay.

[37] = system: 5637; type: functional, cell-based; conditions: Homo sapiens
Description: SANGER: Inhibition of human 5637 cell growth in a cell viability assay.

[38] = system: 769-P; type: functional, cell-based; conditions: Homo sapiens
Description: SANGER: Inhibition of human 769-P cell growth in a cell viability assay.

[39] = system: 8305C; type: functional, cell-based; conditions: Homo sapiens
Description: SANGER: Inhibition of human 8305C cell growth in a cell viability assay.

[40] = system: 8505C; type: functional, cell-based; conditions: Homo sapiens
Description: SANGER: Inhibition of human 8505C cell growth in a cell viability assay.

[41] = system: A-375; type: functional, cell-based; conditions: Homo sapiens;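 further: growth inhibition of A375 cells, read out with a cell viability assay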
Description: SANGER: Inhibition of human A375 cell growth in a cell viability assay.

[42] = system: BPH-1; type: functional, cell-based; conditions: Homo sapiens;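 further: cell viability assay measuring growth inhibition of human BPH-1 cells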
Description: SANGER: Inhibition of human BPH-1 cell growth in a cell viability assay.

[43] = system: BXPC-3; type: functional, cell-based; conditions: Homo sapiens;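 further: growth inhibition of human BxPC-3 cells, read out by a cell viability assay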
Description: SANGER: Inhibition of human BxPC-3 cell growth in a cell viability assay.

[44] = system: CAKI-1; type: functional, cell-based; conditions: Homo sapiens;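 further: growth inhibition of CAKI-1 cells, measured by a cell viability assay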
Description: SANGER: Inhibition of human CAKI-1 cell growth in a cell viability assay.

[45] = system: CAL-12T; type: functional, cell-based, Homo sapiens;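 further: growth inhibition of human CAL-12T cells, read out with a cell viability assay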
Description: SANGER: Inhibition of human CAL-12T cell growth in a cell viability assay.

[46] = system: UMC-11; type: functional, cell-based; conditions: Homo sapiens;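 further: growth inhibition of UMC-11 cells, read out with a cell viability assay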
Description: SANGER: Inhibition of human UMC-11 cell growth in a cell viability assay.

[47] = system: RERF-LC-MS; type: functional, cell-based; conditions: Homo sapiens;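 further: growth inhibition of human RERF-LC-MS cells, read out by a cell viability assay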
Description: SANGER: Inhibition of human RERF-LC-MS cell growth in a cell viability assay.

[48] = system: RPMI-2650; type: functional, cell-based; conditions: Homo sapiens
Description: SANGER: Inhibition of human RPMI-2650 cell growth in a cell viability assay.

[49] = system: SF-295; type: functional, cell-based; conditions: Homo sapiens;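 further: growth inhibition of SF-295 cells, read out with a cell viability assay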
Description: SANGER: Inhibition of human SF295 cell growth in a cell viability assay.

[50] = system: C32; type: functional, cell-based; conditions: Homo sapiens;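 further: cell viability assay, with IC50 reflecting inhibition of C32 cell growth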
Description: SANGER: Inhibition of human C32 cell growth in a cell viability assay.

[51] = system: TGW; type: functional, cell-based; conditions: Homo sapiens;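 further: growth inhibition of human TGW cells, read out with a cell viability assay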
Description: SANGER: Inhibition of human TGW cell growth in a cell viability assay.

NC(=O)c1ncn([C@@H]2O[C@H](COP(=O)(O)O)[C@@H](O)[C@H]2O)c1N
IC50 [1]: 728 µM
IC50 [2]: > 2000 µM
IC50 [3]: > 2000 µM
IC50 [4]: 1650 µM
IC50 [5]: > 2000 µM
IC50 [6]: 657 µM
IC50 [7]: 1060 µM
IC50 [8]: 1390 µM
IC50 [9]: 382 µM
IC50 [10]: > 2000 µM
IC50 [11]: > 2000 µM
IC50 [12]: 901 µM
IC50 [13]: 1210 µM
IC50 [14]: > 2000 µM
IC50 [15]: 1310 µM
IC50 [16]: > 2000 µM
IC50 [17]: > 2000 µM
IC50 [18]: > 2000 µM
IC50 [19]: 1510 µM
IC50 [20]: 1490 µM
IC50 [21]: 507 µM
IC50 [22]: 1490 µM
IC50 [23]: > 2000 µM
IC50 [24]: > 2000 µM
IC50 [25]: > 2000 µM
IC50 [26]: 856 µM
IC50 [27]: > 2000 µM
IC50 [28]: > 2000 µM
IC50 [29]: > 2000 µM
IC50 [30]: > 2000 µM
IC50 [31]: > 2000 µM
IC50 [32]: > 2000 µM
IC50 [33]: > 2000 µM
IC50 [34]: > 2000 µM
IC50 [35]: > 2000 µM
IC50 [36]: > 2000 µM
IC50 [37]: > 2000 µM
IC50 [38]: > 2000 µM
IC50 [39]: > 2000 µM
IC50 [40]: > 2000 µM
IC50 [41]: > 2000 µM
IC50 [42]: 1560 µM
IC50 [43]: 1350 µM
IC50 [44]: > 2000 µM
IC50 ([45]; Homo sapiens, CAL-12T): 668 µM
IC50 [46]: > 2000 µM

O=c1cc(N2CCOCC2)oc2c(-c3cccc4c3sc3ccccc34)cccc12
IC50 [1]: > 2 µM
IC50 [2]: > 2 µM
IC50 [3]: > 2 µM
IC50 [4]: > 2 µM
IC50 [5]: > 2 µM
IC50 [6]: > 2 µM
IC50 [7]: > 2 µM
IC50 [8]: > 2 µM
IC50 [9]: > 2 µM
IC50 [10]: > 2 µM
IC50 [11]: > 2 µM
IC50 [12]: > 2 µM
IC50 [13]: > 2 µM
IC50 [14]: > 2 µM
IC50 [15]: > 2 µM
IC50 [16]: > 2 µM
IC50 [17]: > 2 µM
IC50 [18]: 1.46 µM
IC50 [19]: > 2 µM
IC50 [20]: > 2 µM
IC50 [21]: > 2 µM
IC50 [22]: > 2 µM
IC50 [23]: > 2 µM
IC50 [24]: > 2 µM
IC50 [25]: > 2 µM
IC50 [26]: 1.58 µM
IC50 [27]: > 2 µM
IC50 [28]: > 2 µM
IC50 [47]: > 2 µM
IC50 [48]: > 2 µM
IC50 [49]: > 2 µM
IC50 [29]: > 2 µM
IC50 [30]: > 2 µM
IC50 [31]: > 2 µM
IC50 [32]: > 2 µM
IC50 [33]: > 2 µM
IC50 [34]: > 2 µM
IC50 [35]: > 2 µM
IC50 [36]: > 2 µM
IC50 [37]: > 2 µM
IC50 [38]: > 2 µM
IC50 [39]: > 2 µM
IC50 [40]: > 2 µM
IC50 [41]: > 2 µM
IC50 [42]: > 2 µM
IC50 [43]: > 2 µM
IC50 [50]: > 2 µM
IC50 [44]: > 2 µM
IC50 ([45]; cal-12t): > 2 µM
IC50 [51]: > 2 µM
IC50 [46]: > 2 µM
